Entries after “also recorded” stand apart in the source; their conditions may differ. Where two headings read alike, the source gives them in different places.
Assays:
[1] = test system: SK-N-MC cells; assay: TNF-α induced flux of reactive oxygen species (DCF fluorescence); type: cell-based; conditions: 100 μM test compound, TNF-α 3.0 ng/mL
Text: Oxidative stress agents (OSA) are thought to be involved in cell death in IBD and are key initiator in the cascade of events leading to apoptosis. The purpose of this study is to evaluate the effect of Compound A on cytokine-induced OSA flux.
To visualize OSA, the dye dihydrodichlorofluorescein diacetate is used. This non-fluorescent dye is taken up by cells and deacetylated to its non-fluorescent congener dihydrodichlorofluorescein (H2 DCF), which is trapped within cells. Reactive oxygen species ("ROS") react with H2 DCF, converting it to the highly fluorescent DCF. DCF fluorescence can be measured spectrofluorometrically and can also be visualized in intact cells using fluorescent microscopy.
SK-N-MC cells (American Type Culture Collection, Rockville, Md.) were plated at 250,000 cells/well in 24-well Corning plates. Following plating, the cells were maintained in retinoic acid medium (5 μM) for five days and then treated with at test compound at 100 μM for 1 hour prior to TNF-α (3.0 ng/mL) treatment. […] Following incubation, cultures were read in a cytofluorometer at 485-530 nm wavelength to detect increased DCF formation. Relative fluorescence units (RFU) values for the respective treatment conditions were compared. In this assay, higher fluorescence readings indicate ROS production. Thus, reductions in fluorescence indicates reduction in ROS production.

[2] = test system: adjuvant induced arthritis; assay: Rat adjuvant induced arthritis model of chronic inflammation; type: in vivo; conditions: Compound A 100 mg/kg po or dexamethasone 0.1 mg/kg, daily 7 days, vs adjuvant
Procedure: Confirmation of the anti-inflammatory activity of Compound A was sought in another related biological test-the rat adjuvant induced arthritis model of chronic inflammation. This model was selected because almost all of the anti-IBD agents also show efficacy in standard arthritis models. In this model Compound A was tested at 100 mg/kg, po in a 1 % methyl cellulose suspension. On day 0 all animals received an injection of either Mycobacterium butyricum (100μL, 20 mg/mL in mineral oil) or mineral oil in the base of the tail. 14 days after this injection, rat paws were measured and all the rats were randomized into 3 treatment groups of 8. A control adjuvant group (group without further treatment), a group to be treated with dexamethasone (steroid reference) and a group to treated with Compound A. Rats received Compound A 100 mg/kg, po, or dexamethasone 0.1 mg/kg, op, daily until day 21 (7 days dosing). On day 21 rats were sacrificed. Paw measurements were taken after 5 and 7 days treatment.

[3] = Absolute oral bioavailability (AUC oral vs IV, 20 mg/kg); type: in vivo, rats; conditions: rat, blood
Procedure: Blood concentrations were determined at 0, 0.083, 0.15, 0.5, 1, 2, 4, 8, and 24 hours post-IV dose and 0, 0.5, 1, 2, 4 and 8 hours post-oral dose. Four animals were dosed orally and four animals were dosed intravenously.
The blood samples were analyzed by HPLC. Detection was by UV at 262 nm. Responses were converted to concentrations by comparison to responses from calibration standards injected onto the column. The resulting concentrations were used to calculate the AUC.

[4] = test system: TNBS-induced colitis; assay: TNBS model of IBD, Compound A given before TNBS (morphology, tissue weight); type: in vivo, Male Sprague-Dawley rats
Text: The trinitrobenzene sulphonic acid ("TNBS") model is one of the standard IBD models used in IBD discovery research, and has been extensively evaluated in rodents. A single enema of TNBS induces a prolonged colonic inflammatory response (up to several weeks) that is transmural and is accompanied by oxidative damage as evidenced by an increase in myeloperoxidase ("MPO") activity. Furthermore, the inflammation is characterized by discrete areas of acute necrosis, inflammation and muscle thickening. Agents with anti-inflammatory effects in patients with IBD show efficacy in this model. Although the mechanism by which TNBS induces an inflammatory response is unknown, it is thought to have an immunological basis.
Male Sprague-Dawley rats (200-250 g) were housed in standard cages (2 per cage) and fed rat chow and tap water ad libitum. After an overnight fast, rats were brought into the laboratory and randomized into treatment groups. Colitis was induced by intrarectal administration of 0.5 ml of TNBS solution (50 mg/kg in 50% ethanol) using a 1 ml syringe attached to a 5 cm polyethylene catheter. Control animals received saline (0.9%) or a 1 % methyl cellulose suspension at identical time points.
Three days after TNBS administration, the rats were sacrificed and the colons excised and opened longitudinally.
The weights of each 5 cm colonic segment were also recorded to assess inflammatory induced edema.
For PO (oral) dosing, Compound A was administered by oral gavage 30 mg/kg as a 1% carboxy methyl cellulose ("CMC") suspension 1 hour prior to the administration of TNBS. Control rats were given CMC only. For IV (intravenous) dosing, Compound A was administered 30 mg/kg by tail vein injection in a 75% PEG/25 % water solution 1 hour prior to administration of TNBS. Control rats were given an injection of 75% PEG/25 % water only. Six rats were dosed for each route of administration.
An additional study was conducted varying the amount of Compound A administered to the rats. Doses of 10 mg/kg, 30mg/kg, and 70 mg/kg were given by oral administration.
A study was run to determine whether or not the effectiveness of Compound A was dependent upon when it was administered relative to the TNBS administration.
Groups of rats (N=11/group) were administered increasing doses of Compound A (0-90 mg/kg-po) 1 hour prior to TNBS enema. In addition to macroscopic assessment, the wet weight of the tissue was also measured as an additional secondary efficacy parameter.

[5] = test system: bcl-2; assay: TNF-α induced reduction in bcl-2 (ELISA); type: cell-based; conditions: Compound A 100 μM (printed 100 EM); TNF-α 0.3 or 3.0
Procedure: Cytokine mediated apoptosis or programmed cell death is believed to be involved in a number of diseases including IBD. Reductions in bcl-2 are a major signal in initiation of the apoptotic cascade (see Jourd'heuil et al., J. Clin Gastroenterol. 25(Suppl):S61-S72 (1997)). The purpose of this study is to investigate the effects of Compound A on bcl-2 protein levels in a cellular model of cytokine mediated apoptosis.
SK-N-MC cells (American Type Culture Collection, Rockville, Md.) were plated at 500,000 cells/plate and treated with retinoic acid ("RA") (5 μM) for 5 days. Following RA treatment, the cells were incubated with Compound A (100 μM) for 1 hour. Cells were then treated with increasing concentrations of TNF-α (0, 0.3 and 3 ng/mL) for 6 h. The cells were harvested and lysed and bcl-2 was measured in the lysate using an ELISA assay (Boehringer Manheim). Quantification of bcl-2 was based on a standard curve and results are expressed as units/mL of bcl-2 in the sample. Results represent mean ±SE for 3 separate cultures.

[6] = 0-90 mg/kg po, 1 hour prior to TNBS

bioavailability ([3]; in rats, as restated, read-out: bioavailability): 50% | bioavailability ([3]; oral 20 mg/kg in 1% methyl cellulose vs IV 20 mg/kg in 75% PEG, read-out: absolute bioavailability): 52%
Compound: CC(=O)Nc1ccc(C(=O)NC(C)(C)C)cc1 [Compound A, N-tert-butyl-4-acetamidobenzamide]
ROS induction by TNF-α [1]: significantly reduced these effects | inhibition of the inflammatory response [2]: significant inhibition of the inflammatory response (p<0.005) | colonic morphological score (in words) [4, 6]: dose-dependent reduction | wet weight of colonic segments (in words) [4, 6]: dose-dependent reduction | protective effects, 10 mg/kg ([4]; 10 mg/kg oral): minimal protective effects | severity of IBD symptoms / protection from TNBS damage, IV ([4]; 30 mg/kg IV, 1 hour before TNBS): decreases the severity of IBD symptoms; also recorded: protected from the damage induced by TNBS; also recorded: greater protection seen following IV administration; also recorded: intravenous administration of Compound A also provides protection | protective effects, 30 mg/kg ([4]; 30 mg/kg oral): increased protective effects | severity of IBD symptoms / protection from TNBS damage, PO ([4]; 30 mg/kg po, 1 hour before TNBS): decrease the severity of IBD symptoms; also recorded: protected from the damage induced by TNBS | protection, administered 120 mins before TNBS ([4]; 30 mg/kg po, 120 mins pretreatment): less protective compared to the 60 min pretreatment period | protective effects, 70 mg/kg ([4]; 70 mg/kg oral): strongest protective effect | protection, administered 1 hour before TNBS ([4]; 1 hour (60 min) pretreatment): best protection | tissue weight (in words) ([4]; IV and PO, 30 mg/kg): suggest protection, but not as convincingly as the morphology and MPO activity results | activity in protecting colon tissue, summary (in words) ([4]; IV or PO): good activity in protecting colon tissue from damage | protection, administered 240 mins before TNBS ([4]; single dose, 240 mins pretreatment): little protection against morphological changes | bcl-2 reduction induced by TNF-α [5]: prevented bcl-2 reduction
